Test results reported in patent US20110077230A1, “COPPER ORGANOCOMPLEXES, USE THEREOF AS ANTITUMOR MEANS AND FOR PROTECTING HEALTHY TISSUE FROM IONIZING RADIATION” (CHARITE - UNIVERSITATSMEDIZIN BERLIN, priority 2008, published 2011).

Key:
[1] = tested on: Human lymphoma cells (BJAB); assay: In vivo inhibition of tumor growth, BJAB implanted in SCID mice; conditions: 10 mg/kg peroral, suspended in olive oil
Description: Human lymphoma cells (BJAB) were implanted in six SCID mice. After a tumor with a diameter of 5 mm had formed, the mice were subjected to peroral treatment with complex A at a dose of 10 mg/kg, suspended in olive oil. The control group consisted of 10 animals treated with olive oil only.
* denotes the significance (p≦0.05) in the Mann-Whitney U-test.

[2] = tested on: colon adenocarcinoma tumor (AKATOL); assay: Transplanted colon adenocarcinoma (AKATOL), intraabdominal injection; assay type: in vivo, mice of the BALB line; set-up: Average weight: unit not given here; conditions: for Average volume of tumor: day 21
Description: A suspension of tumor cells was injected into the thighs of 15 mice of the BALB line. The animals received the complex A preparation at a dose of 5 mg/kg 4, 6, 8 and 11 days after implantation.
Group I received the preparation dissolved in DMSO and dispersed in a 4% suspension in physiological saline.
Group II received the preparation in Tween 60.
Group III remained untreated.
On day 21 of the experiment the animals were sacrificed and examined.

[3] = tested on: Ehrlich ascites adenocarcinoma; assay: Ehrlich ascites adenocarcinoma in mice; assay type: in vivo, white mice
Description: The tumor was implanted intraabdominally in white mice of no particular race.
Group I received complex A orally as a suspension in olive oil at a dosage of 10 mg/kg 3, 4, 5, 6, 7, 8, 9 and 10 days after tumor implantation.
Group II received the same treatment, but using sarcolysine instead of complex A.
Group III received no treatment.
The animals were sacrificed and examined on the 11th day after tumor implantation.

[4] = Group I: 5 mg/kg in DMSO/physiological saline

Copper-sarcolysine hydrochloride complex [complex A]
inhibition of tumor growth [1]: significant inhibition of tumor growth
Average volume of tumor ([2]; Group I: 5 mg/kg in DMSO, 4% suspension in physiological saline): 1.315 cm^3
% inhibition, mass percent [2, 4]: 60.4%
% inhibition, volume percent [2, 4]: 87.1%
Average weight [2, 4]: 1.25
% inhibition, mass percent ([2]; Group II: 5 mg/kg in Tween 60): 95.85%
% inhibition, volume percent ([2]; Group II: 5 mg/kg in Tween 60): 97.8%
Average weight ([2]; Group II: 5 mg/kg in Tween 60): 0.25
Average volume of tumor ([2]; Group II: 5 mg/kg in Tween 60): 0.217 cm^3
% inhibition ([3]; 10 mg/kg orally): 75.3%
Average MI of bone marrow ([3]; 10 mg/kg orally): 0.95 ± 0.47 ‰
Average MI of tumor cells ([3]; 10 mg/kg orally): 1.0 ± 0.7 ‰
Average number of tumor cells ([3]; 10 mg/kg orally in olive oil, days 3 to 10, day 11): 40′ 10^6
